Molecules are shown by their SMILES. Activity calls are given as the source filed them. How the calls were made is not given here.

In the assay the target is HIV-1 integrase / human LEDGF/p75 complex. The assay can be described thus: blockers of LEDGF/p75-dependent integrase activity – biochemical, TR-FRET, dose response (AID 1053172). To be noted: TR-FRET integrase-LEDGF/p75 DNA integration. (TR-FRET usually uses a lanthanide donor and a delayed reading to cut background.)
In general, IC50 refers to the concentration that gives 50% inhibition. On to `N/C(=N\N=C/c1ccc(-c2ccc(O)c(C(=O)O)c2)o1)N[N+](=O)[O-]`, for which the IC50 is 1.55 µM. `O=c1c(-c2c(O)cc(O)c3c(=O)cc(-c4ccc(O)cc4)oc23)c(-c2ccc(O)cc2)oc2cc(O)cc(O)c12`: the IC50 was 4.23 µM. Take `O=C(O)c1cccc(-n2cccc2/C=C2/NC(=O)N(c3ccc(Cl)cc3)C2=O)c1`: the half-inhibitory concentration (IC50) was 0.794 µM. For `O=C(O)c1cccc2cccc(-c3c4ccc(=O)c(O)c-4oc4c(O)c(O)ccc34)c12`, the half-inhibitory concentration (IC50) was 0.369 µM. `Cc1cc(/C=C2\C(=O)NC(=O)N(c3ccccc3F)C2=O)c(C)n1-c1cc(C(=O)O)cc(C(=O)O)c1`: the IC50 is 0.815 µM.

For `COC(=O)c1cc(O)cc(OC)c1Oc1cc(C)cc(O)c1C(=O)O`, the IC50 is 2.59 µM. Consider `O=C1NC(=Nc2ccccc2)S/C1=C\C=C\c1ccco1`, for which the IC50 is 4.38 µM. As for `CCN(CC)c1ccc(N=C2C=CC(=O)C=C2NC(C)=O)cc1`, the IC50 was > 36.6 µM (inactive).

With `C=C(C)C(=O)Nc1cccc(C2=NOC3(C2)C[C@@H](C(N)=O)N(C(=O)C(=C)C)C3)c1` (some centres undefined), the 50% inhibitory concentration (IC50) is 5.92 µM. On to `CC(=O)c1ccc(NC(=O)CSc2nnc(-c3ccco3)c(-c3ccco3)n2)cc1`, for which the IC50 is 6.38 µM.

For the compound `NC1=CC(=O)C(=O)c2cccnc21`, the half-maximal inhibitory concentration (IC50) is 2.14 µM. Regarding `O=C1CCCC(O)=C1N=Nc1ccc(C(=O)O)cc1`, the concentration for half-maximal inhibition (IC50) was 2.41 µM. As for `O=C(NN1C(=O)/C(=C/C=C/c2ccco2)SC1=S)c1ccccc1O`, the IC50 is 1.85 µM. As for `O=c1c2cc(O)c(O)cc2oc2cc(O)c(C3OC(CO)C(O)C(O)C3O)c(O)c12` (centres undefined), the IC50 is 1.74 µM. In the case of `CCN=c1scc(C)n1/N=C/c1ccc(O)c(O)c1O`, the IC50 was 5.61 µM.

Turning to `C=CC1=C(C(=O)O)N2C(=O)[C@@H](NC(=O)/C(=N\OCC(=O)O)c3csc(N)n3)[C@H]2SC1`, the IC50 was 2.89 µM. As to `Cc1ccc(-c2nn(-c3ccccc3)cc2/C=C2\SC(=S)N(CCCCCC(=O)O)C2=O)o1`, the IC50 result is “inactive”.

Regarding `COc1c(-c2ccc(O)c(O)c2)oc2cc(O)cc(O)c2c1=O`, the IC50 was 1.9 µM. Under `CSc1nc(N(CCO)CCO)c2sc3nc(-c4ccco4)c4c(c3c2n1)CCC4` stands 4.85 µM.

As to `O=c1cc(-c2ccc(O)c(O)c2)oc2cc(O)c(C3OC(CO)C(O)C(O)C3O)c(O)c12` (centres undefined), the IC50 was 1.55 µM. In the case of `NC(=S)NN=Cc1nccc2c(N)cccc12`, the IC50 is > 36.5 µM (inactive). As to `O=c1c(OC2OC(CO)C(O)C(O)C2OC2OC(CO)C(O)C(O)C2O)c(-c2ccc(O)cc2)oc2cc(O)cc(O)c12` (centres undefined), the half-maximal inhibitory concentration (IC50) is 8.05 µM. With `CC(=O)Nc1ccc(C(=O)/C=C/c2ccco2)cc1`, the half-maximal inhibitory concentration (IC50) is 9.78 µM.

Turning to `O=C(O)c1cc(O)c2c(c1)[C@H]([C@H]1c3cc(C(=O)O)cc(O)c3C(=O)c3c(O[C@@H]4O[C@H](CO)[C@@H](O)[C@H](O)[C@H]4O)cccc31)c1cccc(OC3O[C@H](CO)[C@@H](O)[C@H](O)[C@H]3O)c1C2=O` (some centres undefined), the half-inhibitory concentration (IC50) is 1.05 µM.

For the compound `O=S(=O)(O)c1cc(O)c2cc(Nc3ccccc3)ccc2c1`, the half-maximal inhibitory concentration (IC50) was 2.73 µM. In the case of `Cc1ccc(NC2=CC(=O)C(=O)c3ccccc32)cc1`, the concentration for half-maximal inhibition (IC50) was 8.86 µM. As to `CC(=O)c1ccc2c(c1)C1C=CCC1C(C(=O)O)N2` (centres undefined), the 50% inhibitory concentration (IC50) is 0.575 µM. Turning to `O=C(Cc1csc(N2CCOCC2)n1)N/N=C/c1ccc(O)c(O)c1O`, the IC50 is 0.927 µM. As for `Oc1ccc(C=Nc2ccc(N3CCOCC3)cc2)c(O)c1`, the IC50 entry is “inactive”. Turning to `COc1ccc(/C=N/NC(=O)c2cc(O)c(O)c(O)c2)cc1Cn1cc([N+](=O)[O-])cn1`, the IC50 is 0.689 µM.

With `C[C@@H]1O[C@@H](O[C@@H]2[C@@H](O)[C@H](OCCc3ccc(O)c(O)c3)O[C@H](CO)[C@H]2OC(=O)/C=C/c2ccc(O)c(O)c2)[C@H](O)[C@H](O)[C@H]1O`, the IC50 was 1.41 µM. Regarding `COCCN(CCOC)Cc1c(O)ccc2c1O/C(=C\c1ccco1)C2=O`, the IC50 was > 12.2 µM (inactive). On to `Cc1cc(-c2csc(N)n2)c(C)n1Cc1ccco1`, for which the IC50 was > 36.6 µM (inactive). Turning to `C(=C\c1ccco1)/c1ccc2ccccc2n1`, the IC50 was > 36.5 µM (inactive).

Regarding `O=C1C=C(O)c2c(O)cc(O)c(O)c2C1=O`, the IC50 was 0.742 µM. As for `Cc1sc2nc(SCC(=O)c3ccc(O)c(O)c3)n(C)c(=O)c2c1C`, the IC50 is 3.63 µM. In the case of `O=C(O)C(Cc1ccccc1)N1C(=O)/C(=C/C=C/c2ccco2)SC1=S` (centres undefined), the concentration for half-maximal inhibition (IC50) was 2.74 µM. Turning to `O=C1/C(=C/C=C/c2ccco2)SC(=S)N1c1ccc(O)cc1`, the concentration for half-maximal inhibition (IC50) was 2.66 µM. Regarding `O=C(NCc1ccco1)c1cc2ccc(O)cc2oc1=O`, the IC50 result is “inactive”. As to `COc1ccc2[nH]c3c(C)c4cc[n+](C)cc4c(C)c3c2c1`, the 50% inhibitory concentration (IC50) was 5.11 µM. As for `CCOc1cccc(N2C(=O)/C(=C/c3ccco3)C(=O)NC2=S)c1`, the figure is 1.55 µM.

Take `S=c1[nH]nc(-c2ccco2)n1/N=C/C=C/c1ccco1`: the IC50 result is “inactive”. Take `CC1=NN(c2cccc(C(=O)O)c2)C(=O)/C1=C\C=C\c1ccco1`: the IC50 is 0.734 µM.

`CCCCCn1c(NC(=O)c2ccco2)c(S(=O)(=O)c2ccc(C)cc2)c2nc3ccccc3nc21`: the IC50 entry is “inactive”. As for `CN(C)C1C(=O)C(C(N)=O)=C(O)C2(O)C(=O)C3=C(O)c4c(O)cccc4C(C)(O)C3C(O)C12` (centres undefined), the entry is “inactive”; as for `O=C(NN1C(=O)/C(=C/c2ccc(O)c(O)c2)SC1=S)c1ccccc1`, 1.8 µM. Regarding `O=C(NCCCO)c1ccc2nc(-c3ccco3)c(-c3ccco3)nc2c1`, the IC50 was 2.85 µM. Regarding `C=C1c2cccc(O)c2C(=O)C2C(=O)[C@]3(O)C(=O)C(C(N)=O)C(=O)[C@@H](N(C)C)[C@@H]3[C@@H](O)[C@H]12` (some centres undefined), the half-inhibitory concentration (IC50) was 4.76 µM. Turning to `O=C(N/N=C/c1ccc(F)cc1)c1cc(-c2ccco2)nc2ccccc12`, the IC50 was 8.59 µM. Take `NC(=O)c1ccc(N=Cc2c(O)n(Cc3ccco3)c(=O)[nH]c2=O)cc1`: the IC50 entry was “inactive”. On to `CN(C)c1ccc2nc3ccc(=O)cc-3sc2c1`, for which the IC50 was > 36.5 µM (inactive).

With `Nc1c(C(=O)NCC2CCCO2)sc2nc3c(c(-c4ccco4)c12)CC/C3=C\c1ccco1` (centres undefined), the half-inhibitory concentration (IC50) is 1.35 µM. Turning to `O=c1cc(-c2ccc(O)cc2)oc2cc(O)c(C3OC(CO)C(O)C(O)C3O)c(O)c12` (centres undefined), the IC50 is 5.96 µM.

Regarding `O=C1S/C(=C\C=C\c2ccco2)C(=O)N1c1ccc(O)cc1`, the IC50 is 9.56 µM. For the compound `Cc1ccc(NC(=O)CN2C(=O)N/C(=C/c3ccco3)C2=O)cc1`, the IC50 is > 36.5 µM (inactive). As for `COCCCNC(=O)/C(C#N)=C/c1ccc(OCC(=O)O)c(OC)c1`, the concentration for half-maximal inhibition (IC50) was 5.28 µM. With `C[C@@H]1O[C@@H](Oc2c(-c3cc(O)c(O)c(O)c3)oc3cc(O)cc(O)c3c2=O)[C@H](O)[C@H](O)[C@H]1O`, the concentration for half-maximal inhibition (IC50) was 1.64 µM. Under `COc1cc(-c2cc(=O)c3c(O)c(OC)c(OC)c(O)c3o2)ccc1O` stands 4.96 µM; under `CN=c1scc(C)n1/N=C/c1ccc(O)c(O)c1O`, 4.74 µM. As for `NC(=O)CC1Nc2cccc3cccc(c23)NC1=O` (centres undefined), the IC50 was > 36.5 µM (inactive). For `Cn1c(N)c(C(=O)COC(=O)c2cc(-c3ccco3)nc3ccccc23)c(=O)n(C)c1=O`, the concentration for half-maximal inhibition (IC50) is 2.57 µM.

Regarding `C/C(=N/NC(=O)c1cc(O)c(O)c(O)c1)c1ccc([N+](=O)[O-])cc1`, the 50% inhibitory concentration (IC50) is 2.12 µM. With `O=C(O)COc1ccc2c(c1)O/C(=C\c1ccco1)C2=O`, the half-inhibitory concentration (IC50) was 1.61 µM. Turning to `CC1(C)OC(=O)C(=Cc2ccc(-c3ccc(Cl)c(C(=O)O)c3)o2)C(=O)O1`, the IC50 was 7.91 µM. Take `O=C(N/N=C/c1cccnc1)c1cc(O)c(O)c(O)c1`: the IC50 result is “inactive”. Turning to `C=C(C)C(=O)Nc1cccc(C2=NOC3(C2)C[C@@H](C(N)=O)N(C(=O)/C(C)=C/C)C3)c1` (some centres undefined), the IC50 was 3.25 µM. Turning to `O=C1C=C(O)c2[nH]c(=O)ccc2C1=O`, the half-maximal inhibitory concentration (IC50) was 3.8 µM. As for `COc1cccc(-n2c(SCc3cc(=O)oc4cc(O)c(O)cc34)nc3ccccc3c2=O)c1`, the IC50 was 3.81 µM. Consider `Oc1ccc(C=Nc2cccc3ncccc23)c(O)c1`, for which the IC50 was > 36.5 µM (inactive). Under `O=C(O)CC(C(=O)O)N1C(=O)/C(=C/C=C/c2ccco2)SC1=S` (centres undefined) stands 0.377 µM; under `Cc1cccc(N=C2NC(=O)/C(=C/C=C/c3ccco3)S2)c1C`, 2.99 µM. Regarding `COc1ccc(N=C2NC(=O)/C(=C\C=C\c3ccco3)S2)cc1`, the IC50 was 8.07 µM. Take `C=CC(=O)N1C/C(=C/c2ccc(F)cc2)C(=O)/C(=C\c2ccc(F)cc2)C1`: the IC50 entry is “inactive”.

For the compound `CC1(C)OC(C)(C)/C(=C/Nc2ccc(O)cc2)C1=O`, the IC50 entry is “inactive”. Under `Nc1ccc2cc3ccc(N)cc3nc2c1` stands 4.46 µM. Consider `Cc1cc(=O)n2[nH]c(-c3ccsc3-n3c(C)ccc3C)cc2n1`, for which the IC50 entry is “inactive”.

`O=C(O)c1ccc(-n2c(-c3cc(-c4ccco4)[nH]n3)n[nH]c2=S)cc1`: the IC50 is 7.32 µM. On to `O=c1cc2c(=O)oc3cc(O)c(O)oc3c2c(O)c1O`, for which the IC50 is 0.244 µM. Turning to `O=[N+]([O-])c1ccccc1NC(=S)N/N=C/c1ccc(O)c(O)c1`, the half-maximal inhibitory concentration (IC50) is 2.51 µM. Turning to `Cc1ccc(N=C2NC(=O)/C(=C/C=C/c3ccco3)S2)cc1C`, the 50% inhibitory concentration (IC50) is 7.35 µM. `Cc1c(CC(=O)N2CCN(C(=O)C3COc4ccccc4O3)CC2)c(=O)oc2c(O)c(O)ccc12` (centres undefined): the IC50 is 0.408 µM. Turning to `O=S(=O)(c1cc(O)ccc1O)c1cccc2c(S(=O)(=O)c3cc(O)ccc3O)cccc12`, the IC50 entry is “inactive”.

For the compound `O=C(CCN1CCN(c2ccccc2)CC1)N/N=C/c1ccc(O)c(O)c1O`, the IC50 was 1.02 µM. On to `O=Cc1ccc2oc3nc4n(c(=O)c3c(=O)c2c1)CCCS4`, for which the IC50 was 1.81 µM.

Consider `COCCN(CCOC)Cc1c(O)ccc2c1O/C(=C\c1ccc(C)o1)C2=O`, for which the IC50 was > 36.5 µM (inactive).

Regarding `CCCNC1=C(C)C(=O)C2=C(C1=O)C(COC(N)=O)[C@]1(OC)C3NC3CN21` (some centres undefined), the IC50 result was “inactive”. As for `CC1OC(OCC2OC(Oc3c(-c4ccc(O)cc4)oc4cc(O)cc(O)c4c3=O)C(O)C(O)C2O)C(O)C(O)C1O` (centres undefined), the half-inhibitory concentration (IC50) is 8.68 µM. Take `O=C1C=C(Nc2ccccc2O)c2ccccc2C1=O`: the IC50 was 7.39 µM. As for `O=C1c2ccccc2C(=O)N1/N=C/c1ccc(O)c(O)c1`, the figure is 3 µM.

The record behind these values is PubChem BioAssay AID1053172 (The Scripps Research Institute Molecular Screening Center, 2014).
